These results are taken from US20070037887A1, “Blockade of mtor to prevent a hormonal adaptive response” (University of Virginia Patent Foundation, priority 2003, published 2007).

Test [1] concerns Shc. Put plainly: E2-induced Shc phosphorylation in MCF-7 cells. The class given is cell-based, human. Conditions: 10^−10 M E2 for 3 minutes. The protocol:
Because ERα, Shc and MAP kinase are all involved in E2 action in MCF-7 cells, upstream components responsible for Shc phosphorylation were determined by measuring the effects of PP2, ICI and PD98059 on E2-induced phosphorylation of Shc. In the presence of the inhibitors, MCF-7 cells were stimulated with vehicle or 10^−10 M E2 for 3 minutes and the status of Shc phosphorylation was examined. […] No effects of these inhibitors were apparent in the absence of E2 stimulation. […] Each of these inhibitors was capable of reducing the rate of cell proliferation in LTED cells.

Test [2] concerns LTED cells. The test is described as follows: Actin cytoskeleton (phalloidin staining) and ERα localization in LTED cells. The class given is cell-based, human. Conditions: 10^−9 M. The source says: It has been reported that cell mobility is controlled by a network of membrane initiated signals, such as activation of the Shc-Ras-MAPK pathway. Recently, it was reported that cell focal adhesions are highly dynamic structures. Cells can rapidly respond to the stimulation by growth factors and show reorganization of their cytoskeleton and cell shape. To examine E2 effects on reorganization of the actin cytoskeleton, the distribution of F-actin and also redistribution of the ERα localization in LTED and MCF-7 cells was determined by phalloidin staining. Untreated LTED cells expressed low actin polymerization and a few focal adhesion points. After E2 stimulation in contrast, the cytoskeleton underwent remodeling associated with formation of cellular ruffles, lamellipodias and leading edges, alterations of cell shape and loss of mature focal adhesion points. A subcellular redistribution of ERα to these dynamic membranes upon E2 stimulation represented another important feature of LTED cells. The ER antagonist ICI 182 780 at 10^−9 M blocked E2-induced ruffle formation as well as redistribution of ERα to the membrane with little effect by itself.

For test [3], the system named is mTOR signaling. The settings on record: in cells; cited from earlier work.
Test [4] concerns LTED cells. The test is described as follows: [3H] thymidine incorporation into DNA, LTED cells. The class given is cell-based, human. The settings on record: inhibitors of the MAP kinase pathway. Here is the method: FIGS. 5A & 5B represent the effect of FTS on DNA synthesis in MCF-7 (FIG. 5A) and LTED (FIG. 5B) cells. One hundred thousand cells were plated into each well of 24-well plates. Two days later, the cells were re-fed with IMEM containing 5% DCC-FBS. After another two days, cells were treated in quadruplicate with the compounds indicated for 18 hours. [^3H] thymidine (1 μCi/well) was added during the last 2 h of incubation. [^3H] thymidine incorporated into DNA was normalized by protein content.
The inhibitory effect of FTS on cell growth may be the result of inhibition of cellular proliferation, induction of apoptosis, or both. To determine the mechanism by which FTS inhibits cell growth, FTS's effect on DNA synthesis and apoptosis was investigated. […] Estradiol (10^−10 M) increased [^3H] thymidine incorporation by 2.6 fold compared to the control level in MCF-7 cells.

For test [5], the system named is MCF-7 cells. Put plainly: Estradiol dose response of growth, wild type MCF-7 cells. It counts as cell-based, human. The settings on record: PD 98059 co-administered with TGF alpha. The protocol:
(§1) As further evidence of the role of MAP kinase, PD 98059 was administered to LTED cells and its effect on level of sensitivity to estradiol was examined.
To investigate whether the MAP and P13 kinase pathways have a role in estradiol induced cell proliferation, the following experiments were conducted. […] Blockade of this effect was obtained with the MAPK inhibitor PD98059. Administration of TGF at a dose of 10 ng/ml caused a 2-log shift to the left in the ability of estradiol to stimulate the growth of wild-type MCF-7 cells. […] Dual inhibition of PI3K with LY40029 and MAPK with U0126 shifted the level of sensitivity to estradiol more dramatically, by more than 2 logs to the right. On the basis of these observations, it is believed that adaptive hypersensitivity involves the joint activation of the PI3K and MAPK pathways.

For test [6], the system named is LTED cells. Put plainly: Estradiol dose response of growth (hypersensitivity), LTED cells. It counts as cell-based, human. The settings on record: PD 98059 alone.
Source text: During the phase when tamoxifen first begins to stimulate tumor growth, removal of tamoxifen and administration of very low doses of estradiol stimulates tumor growth. In marked contrast, wild type tumors not exposed to tamoxifen long term are not stimulated by such low doses of estradiol. Taken together, these experiments indicate that either estradiol deprivation or blockade of estrogen action with antiestrogens enhances the level of sensitivity to estrogens or to the estrogenic properties of tamoxifen. This phenomenon of adaptive hypersensitivity is believed to be responsible for the superiority of aromatase inhibitors over tamoxifen in a variety of clinical settings.
as §1
To investigate whether the MAP and P13 kinase pathways have a role in estradiol induced cell proliferation, the following experiments were conducted. […] Blockade of this effect was obtained with the MAPK inhibitor PD98059. Administration of TGF at a dose of 10 ng/ml caused a 2-log shift to the left in the ability of estradiol to stimulate the growth of wild-type MCF-7 cells. […] Dual inhibition of PI3K with LY40029 and MAPK with U0126 shifted the level of sensitivity to estradiol more dramatically, by more than 2 logs to the right. […]

Test [7] relates to hormone dependent breast cancer. Conditions: women responding initially to tamoxifen then relapsing, crossed over; cited from earlier work.
The subject of test [8] is mTOR-raptor complex. Put plainly: Coimmunoprecipitation of raptor with mTOR, compound added to cell extracts or immune complexes. It counts as binding. Conditions: caffeine 1 mM, LY294002 10 μM, rapamycin 1 μM plus FKBP12 10 μM, wortmannin 1 μM. Here is the method:
293T cells were transfected with pcDNA3 alone (Vec.) or with a combination of pcDNA3AU1-mTOR, pcDNA33HA-Raptor, and pcDNA33HA-mLST8. Extracts of the cells were incubated with increasing concentrations of FTS before AU1-mTOR was immunoprecipated. Samples of the immune complexes were incubated with [γ-^32P]ATP and recombinant [His^6]PHAS-I, then subjected to SDS-PAGE and transferred to an immobilon membrane. After obtaining a phosphorimage of the membrane to detect ^32P-PHAS-I, the membrane was immunoblotted with PThr^36/45 antibodies. Other samples of the immune complexes were subjected to SDS-PAGE and immunoblots were prepared with antibodies to the HA epitope or to mTOR (see FIG. 13A). Extracts of nontransfected 293T cells were incubated with increasing concentrations of FTS before mTOR was immunoprecipated with mTAb1. A control immunoprecipitation was conducted using nonimmune IgG (NI). Immune complexes were subjected to SDS-PAGE and immunoblots were prepared with antibodies to mLST8, mTOR, and raptor.
Samples of extracts from 293T cells overexpressing AU1-mTOR, HA-raptor, and HA-mLST8 were incubated for 1 h with increasing concentrations of FTS (●, ▴, ▪) or GTS (∘, Δ, □) before immunoprecipitations were conducted with anti-AU1 antibodies. mTOR kinase activity (●, ∘) was determined by measuring ^32P incorporation into [His^6]PHAS-I in immune complex kinases assays performed with [γ-^32P]ATP (see FIG. 14A). The relative amounts of HA-raptor (▴, Δ) and HA-mLST8 (▪, □) that coimmunoprecipitated with AU1-mTOR were determined after immunoblotting with anti-HA antibodies (see FIG. 14B). The results (mean values+S.E. from 5 experiments) are expressed as percentages of the mTOR activity (FIG. 14A) or coimmunoprecipitating proteins (FIG. 14B) from samples incubated without FTS or GTS, and have been corrected for the amounts of AU1-mTOR immunoprecipitated.
293T cells were transfected with pcDNA3 alone (Vec.) or with a combination of pcDNA3AU1-mTOR, pcDNA33HARaptor, and pcDNA33HA-mLST8. AU1-mTOR was immunoprecipitated and samples of the washed immune complexes were at incubated […] for 30 min with no inhibitors or with the following: caffeine (1 mM), FTS (50 μM), LY294002 (10 μM), rapamycin (1 μM) plus FKBP12 (10 μM), and 1 μM wortmannin. To prevent destruction of wortmannin, incubations were conducted in the absence of thiol reducing agents. Samples of the immune complexes were incubated for 10 min with 10 mM MnCl2, 1 mM [γ-^32P]ATP, and 50 μg/ml [His^6]PHAS-I to assess mTOR activity. Other samples were rinsed twice, subjected to SDS-PAGE, and immunoblotted with anti-HA and anti-AU1 antibodies to determine the amounts of HA-raptor and HA-mLST8 associated with AU1-mTOR. The relative amounts of ^32P incorporated into PHAS-I were determined by phosphorimaging (see FIG. 15B).

Test [9] relates to MAP kinase. The test is described as follows: MAP kinase activation in LTED cells. It counts as cell-based, human. The protocol: Upregulation of MAP kinase and PI-3-kinase could reflect either a constitutive activation of growth factor receptors, an increase in the endogenous secretion of growth factors, or other mechanisms. Inhibition of MAP kinase with a pure antiestrogen would rule out the possibility of constitutive activation of growth factor receptors or growth factor secretion. Accordingly, the pure anti-estrogen, faslodex (fulvestrant) was administered and the level of activation of MAP kinase in LTED cells was examined.
Estrogen deprivation might trigger activation of a non-genomic, estrogen regulated, MAP kinase pathway which utilizes Shc. […] The addition of E2 stimulated MAP kinase phosphorylation in LTED cells within minutes. The increased MAP kinase phosphorylation by E2 was time and dose-dependent being greatly stimulated at 15 min and remaining elevated for at least 30 min. Maximal stimulation of MAP kinase phosphorylation was at 10^−10 M of E2.

In test [10] the test system is Shc. Put plainly: Shc tyrosine phosphorylation in LTED cells. The class given is cell-based, human. Conditions: at 3 min and 15 min respectively. Here is the method:
Shc proteins are known to couple tyrosine kinase receptors to the MAPK pathway and activation of Shc involves the phosphorylation of SHC itself. To investigate if the Shc pathway was involved in the rapid action of estradiol in LTED cells, tyrosine phosphorylated proteins were immuno-precipitated and tested for the presence of Shc under E2 treatment. E2 rapidly stimulated Shc tyrosine phosphorylation in a dose and time dependent fashion with a peak at 3 minutes. The pure estrogen receptor antagonist, fulvestrant, blocked E2-induced Shc and MAPK phosphorylation at 3 min and 15 min respectively.

As to `C[C@]12CC[C@@H]3c4ccc(O)cc4C[C@@H](CCCCCCCCC[S+]([O-])CCCC(F)(F)C(F)(F)F)[C@H]3[C@@H]1CC[C@@H]2O` (stereo partly drawn) [ICI 182 780], the “E2-induced Shc phosphorylation” value in test [1] is on record as “effectively inhibited”. In addition, the “E2-induced ruffle formation and redistribution of ERα to the membrane” value in test [2] was “blocked”.

Take `CC[C@H](C)[C@@H](CO[C@@H](Cc1ccccc1)C(=O)N[C@@H](CCS(C)(=O)=O)C(=O)OC(C)C)NC[C@@H](N)CS` [L-744,832]: the “time in which inhibition of mTOR signaling occurs” value in [3] is at most 1.5 h.

For `COc1cccc(-c2cc(=O)c3ccccc3o2)c1N` [PD98059], the “incorporation of tritiated thymidine into DNA” value in [4] is reported as “block the incorporation”. Moreover, the results for the “TGF alpha induced left shift in estradiol dose response” value in test [5] and in test [5] (listed as PD 98059) were “returned to baseline” and “returned back to baseline”, respectively. Besides, the “shift to the right of estradiol dose response curves” value in test [6] is reported as “approximately one-half log”. Further, in test [1], the “E2-induced Shc phosphorylation” value is on record as “did not influence”.

For `CCC1(c2ccc(N)cc2)CCC(=O)NC1=O` (stereo not drawn) [aminoglutethimide], the “women with secondary clinical benefit” value in [7] is recorded as 50%.

As to `Cn1c(=O)c2c(ncn2C)n(C)c1=O` [caffeine, reference compound], the “decrease of the association of AU1-mTOR and HA-raptor” value in test [8] is listed as “little, if any, effect”.

With `C[C@]12CC[C@@H]3c4ccc(O)cc4C[C@@H](CCCCCCCCC[S+]([O-])CCCC(F)(F)C(F)(F)F)[C@H]3[C@@H]1CC[C@@H]2O` (stereo partly drawn) [fulvestrant], the “level of activated MAP kinase” value in [9] is listed as “returned the level of activated MAP kinase back to the level seen in wild type MCF-7 cells”. Also, the “E2-induced Shc and MAPK phosphorylation” value in test [10] is “blocked”.
